target: T1, integrin α4β7 (Homo sapiens, UniProt P13612+P26010); test: Fluorescence Polarization (FP) assay for α4β7 binding, competition with fluorescein-labeled peptide; settings: 6.5 nM integrin α4β7, 3 nM fluorescein-labeled peptide, 2 mM MnCl2; read-out: FP Assay (Example 5) IC50
T1 sequence (P13612 34-977 limits assumed): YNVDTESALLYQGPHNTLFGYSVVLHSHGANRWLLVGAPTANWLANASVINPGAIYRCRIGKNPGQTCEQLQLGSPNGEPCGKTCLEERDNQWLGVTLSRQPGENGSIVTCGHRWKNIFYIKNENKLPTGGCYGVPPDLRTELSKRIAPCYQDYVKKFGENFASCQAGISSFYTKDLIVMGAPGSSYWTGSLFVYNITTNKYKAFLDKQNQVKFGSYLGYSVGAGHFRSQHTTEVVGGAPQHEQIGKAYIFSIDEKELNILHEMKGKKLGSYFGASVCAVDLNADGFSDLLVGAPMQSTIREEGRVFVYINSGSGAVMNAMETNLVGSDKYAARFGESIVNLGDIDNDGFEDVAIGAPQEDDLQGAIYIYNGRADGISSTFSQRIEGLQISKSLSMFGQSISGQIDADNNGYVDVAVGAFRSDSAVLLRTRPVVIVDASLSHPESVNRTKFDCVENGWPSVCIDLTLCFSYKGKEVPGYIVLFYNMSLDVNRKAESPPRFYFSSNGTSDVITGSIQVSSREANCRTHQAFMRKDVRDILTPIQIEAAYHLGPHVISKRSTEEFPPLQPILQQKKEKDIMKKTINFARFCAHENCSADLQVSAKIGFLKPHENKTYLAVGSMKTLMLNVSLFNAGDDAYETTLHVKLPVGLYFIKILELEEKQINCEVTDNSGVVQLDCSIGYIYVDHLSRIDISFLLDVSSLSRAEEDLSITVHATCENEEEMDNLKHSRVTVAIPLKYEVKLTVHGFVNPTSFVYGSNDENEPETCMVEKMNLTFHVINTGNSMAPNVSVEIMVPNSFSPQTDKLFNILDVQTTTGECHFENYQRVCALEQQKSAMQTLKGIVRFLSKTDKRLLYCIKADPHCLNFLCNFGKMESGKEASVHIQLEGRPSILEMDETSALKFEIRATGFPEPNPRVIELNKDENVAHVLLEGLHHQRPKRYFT
T1 sequence (P26010 20-723 limits assumed): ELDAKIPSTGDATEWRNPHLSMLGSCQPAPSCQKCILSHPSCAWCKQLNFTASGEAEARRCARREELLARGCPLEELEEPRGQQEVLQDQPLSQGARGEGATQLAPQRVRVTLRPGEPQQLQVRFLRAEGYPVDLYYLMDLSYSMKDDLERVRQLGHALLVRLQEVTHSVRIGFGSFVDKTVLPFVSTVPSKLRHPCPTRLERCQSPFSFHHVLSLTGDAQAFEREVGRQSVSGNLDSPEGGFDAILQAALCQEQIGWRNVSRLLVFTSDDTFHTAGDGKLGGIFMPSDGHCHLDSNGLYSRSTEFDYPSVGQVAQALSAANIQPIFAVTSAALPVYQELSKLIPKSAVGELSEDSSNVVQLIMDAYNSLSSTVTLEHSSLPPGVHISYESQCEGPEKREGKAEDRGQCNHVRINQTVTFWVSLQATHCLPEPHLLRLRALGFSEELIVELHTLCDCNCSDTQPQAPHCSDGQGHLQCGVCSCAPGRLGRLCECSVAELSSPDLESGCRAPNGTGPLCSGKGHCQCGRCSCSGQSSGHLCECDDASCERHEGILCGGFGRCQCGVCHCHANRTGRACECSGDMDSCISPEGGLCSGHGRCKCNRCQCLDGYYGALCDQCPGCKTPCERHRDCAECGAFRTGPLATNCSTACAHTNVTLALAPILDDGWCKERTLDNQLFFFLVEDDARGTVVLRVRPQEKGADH
Experimental: Three in vitro assays were used to examine the α4β7 mechanistic process used by cells: 1) ligand:receptor affinity, 2) the avidity of those interactions on a cell's surface, and 3) how those interactions fare under an imposing force. In Example 5, a Fluorescence Polarization (FP) assay is used to measure compound activity through binding competition with the fluorescein-labeled peptide. In Example 6, the potency of compounds against α4β7 is measured in the cell-based ligand binding assay (LBA), using RPMI 8866 cells incubated with the compound samples in competition with soluble MAdCAM-1 ligand. In Example 7, activity of compounds is evaluated in a cell adhesion assay that mechanistically tests what occurs in vivo when trafficking cells utilize α4β7 to adhere to MAdCAM-1 expressing HEVs of the gut during the extravasation process. In the cell adhesion assay of Example 7, a MAdCAM1-(Fc) is coated on plastic, and α4β7 expressing cells (RPMI-8866) are allowed to adhere to the coated surface in the presence of the test compounds. Next, the force of washing with buffer is applied to cells thereby testing the strength of that adhesion. Unattached cells are removed and the remaining adherent cells are quantified.
Fluorescence Polarization (FP) assays were used to measure compound activity through binding competition with the fluorescein-labeled peptide […]{Lys(FITC)}. In the assay, 6.5 nM of integrin α4β7 was incubated with the test compound in 2 mM manganese chloride, 0.1 mM calcium chloride, 20 mM HEPES buffer at pH 7.3, 150 mM sodium chloride, 0.01% Triton X-100, 2% DMSO, and 3 nM of the fluorescein-labeled peptide. Running the assays in 384-well plates, the integrin protein was pre-incubated with the test compounds for 15 minutes at 22° C. before the fluorescein-labeled peptide was added. After the fluorescein-labeled peptide was added, the assay was incubated at 22° C. for 1 hour and fluorescence polarization was measured. IC50 values were determined by non-linear regression, four-parameter curve fitting.

| SMILES | IC50 |
| --- | --- |
| Cc1cc(-c2c(C)ccc(F)c2C)cc([C@H](CC(=O)O)NC(=O)C(CC(C)C)n2cc(CCN3CCC3)c(C(F)(F)F)cc2=O)c1F (single isomer, unassigned) [AF-P2] | ≤ 10 nM |
| Cc1ccn([C@@H](NC(C)C)C(=O)N[C@@H](CC(=O)O)c2cncc(-c3c(C)cccc3C)c2)c(=O)c1 [Example C-7, reference compound] | ≤ 10 nM |
| Cc1ccn([C@@H](CC(C)C)C(=O)N[C@H](CC(=O)O)c2cncc(-c3c(C)cccc3C)c2)c(=O)c1 [Example C-28, reference compound] | 10 to 500 nM |
| Cc1ccc(F)c(C)c1-c1cc(C2CC2)c(F)c([C@H](CC(=O)O)NC(=O)[C@H](CC(C)C)n2cc(CCN3CCC3)c(C(F)(F)F)cc2=O)c1F [HH-P2, (3S)-3-(2-(5-(2-(azetidin-1-yl)ethyl)-2-oxo-4-(trifluoromethyl)pyridin-1(2H)-yl)-4-methylpentanamido)-3-(5-cyclopropyl-2,3′,4-trifluoro-2′,6′-dimethyl-[1,1′-biphenyl]-3-yl)propanoic Acid] | ≤ 10 nM |
| Cc1cc(C)c(-c2cc(C3CC3)c(F)c([C@H](CC(=O)O)NC(=O)[C@H](CC(C)C)n3cc(CCN4CCC4)c(C(F)(F)F)cc3=O)c2F)c(C)c1 [HM-P2, (3S)-3-(2-(5-(2-(azetidin-1-yl)ethyl)-2-oxo-4-(trifluoromethyl)pyridin-1(2H)-yl)-4-methylpentanamido)-3-(5-cyclopropyl-2,4-difluoro-2′,4′,6′-trimethylbiphenyl-3-yl)propanoic Acid] | ≤ 10 nM |
| Cc1cc(C2CC2)cc(C)c1-c1cc(C(F)(F)F)c(F)c([C@H](CC(=O)O)NC(=O)[C@H](CC(C)C)n2cc(CCCN(C)C)c(C(F)(F)F)cc2=O)c1F [HU-P2, (3S)-3-(4′-cyclopropyl-2,4-difluoro-2′,6′-dimethyl-5-(trifluoromethyl)-[1,1′-biphenyl]-3-yl)-3-(2-(5-(3-(dimethylamino)propyl)-2-oxo-4-(trifluoromethyl)pyridin-1(2H)-yl)-4-methylpentanamido)propanoic Acid] | ≤ 10 nM |
| Cc1cc(F)cc(C)c1-c1cc(C(F)(F)F)c(F)c([C@H](CC(=O)O)NC(=O)[C@H](CC(C)C)n2cc(CCCN(C)C)c(C(F)(F)F)cc2=O)c1F [HW-P2, (3S)-3-(2-(5-(3-(dimethylamino)propyl)-2-oxo-4-(trifluoromethyl)pyridin-1(2H)-yl)-4-methylpentanamido)-3-(2,4,4′-trifluoro-2′,6′-dimethyl-5-(trifluoromethyl)-[1,1′-biphenyl]-3-yl)propanoic Acid] | ≤ 10 nM |
| Cc1cc(C)c(-c2cc(C(F)(F)F)c(F)c([C@H](CC(=O)O)NC(=O)[C@H](CC(C)C)n3cc(CCCN(C)C)c(C(F)(F)F)cc3=O)c2F)c(C)c1 [HZ-P2, (3S)-3-(2,4-difluoro-2′,4′,6′-trimethyl-5-(trifluoromethyl)biphenyl-3-yl)-3-(2-(5-(3-(dimethylamino)propyl)-2-oxo-4-(trifluoromethyl)pyridin-1(2H)-yl)-4-methylpentanamido)propanoic Acid] | ≤ 10 nM |
| Cc1cc(-c2c(C)cc(F)cc2C)cc([C@H](CC(=O)O)NC(=O)[C@H](CC(C)C)n2cc(CCN(C)C)cc(C(F)F)c2=O)c1F [I-P2, (3S)-3-(4,4′-difluoro-2′,5,6′-trimethyl-[1,1′-biphenyl]-3-yl)-3-(2-(3-(difluoromethyl)-5-(2-(dimethylamino)ethyl)-2-oxopyridin-1(2H)-yl)-4-methylpentanamido)propanoic Acid] | ≤ 10 nM |
| Cc1cc(C)c(-c2cc(C(F)(F)F)c(F)c([C@H](CC(=O)O)NC(=O)[C@H](CC(C)C)n3cc(CCN(C)C)c(C(F)(F)F)cc3=O)c2F)c(C)c1 [IF-P2, (3S)-3-(2,4-difluoro-2′,4′,6′-trimethyl-5-(trifluoromethyl)-[1,1′-biphenyl]-3-yl)-3-(2-(5-(2-(dimethylamino)ethyl)-2-oxo-4-(trifluoromethyl)pyridin-1(2H)-yl)-4-methylpentanamido)propanoic Acid] | ≤ 10 nM |
| Cc1cc(C)c(-c2cc(C(F)(F)F)c(F)c([C@H](CC(=O)O)NC(=O)[C@H](CC(C)C)n3cc(CCN4CCC4)c(C(F)(F)F)cc3=O)c2F)c(C)c1 [IG-P2, (3S)-3-(2-(5-(2-(azetidin-1-yl)ethyl)-2-oxo-4-(trifluoromethyl)pyridin-1(2H)-yl)-4-methylpentanamido)-3-(2,4-difluoro-2′,4′,6′-trimethyl-5-(trifluoromethyl)biphenyl-3-yl)propanoic Acid] | ≤ 10 nM |
| Cc1cc(C)c(-c2cc(C)c(F)c([C@H](CC(=O)O)NC(=O)[C@H](CC(C)C)n3cc(CCCN(C)C)c(C(F)(F)F)cc3=O)c2F)c(C)c1F [IW-P2, (3S)-3-(2-(5-(3-(dimethylamino)propyl)-2-oxo-4-(trifluoromethyl)pyridin-1(2H)-yl)-4-methylpentanamido)-3-(2,3′,4-trifluoro-2′,4′,5,6′-tetramethyl-[1,1′-biphenyl]-3-yl)propanoic Acid] | ≤ 10 nM |
| Cc1cc(F)c(C)c(C)c1-c1cc(C(F)(F)F)c(F)c([C@H](CC(=O)O)NC(=O)[C@H](CC(C)C)n2cc(CCN3CCC3)c(C(F)(F)F)cc2=O)c1F [KT-P2, (3S)-3-(2-(5-(2-(azetidin-1-yl)ethyl)-2-oxo-4-(trifluoromethyl)pyridin-1(2H)-yl)-4-methylpentanamido)-3-(2,4,4′-trifluoro-2′,3′,6′-trimethyl-5-(trifluoromethyl)-[1,1′-biphenyl]-3-yl)propanoic Acid] | ≤ 10 nM |
